# Results published in patent US12264134B2 (Merck Sharp & Dohme LLC, priority 2018, dated 2025).
# Key:
# IDO1 [1] = molecular target: T1, IDO1 (Homo sapiens, UniProt P14902); test: IDO1 Cellular Assay in HeLa Cells Stimulated with IFNγ; type: cell-based; details: read-out: HeLa Cell Potency, IC50
# IDO1 [2] = molecular target: T1, IDO1; test: IDO1 Human Whole blood Assay; type: cell-based; design: Human whole blood was drawn in sodium heparin coated tubes from healthy internal donors; from tissue; host or cells: human whole blood from healthy donors, stimulated with LPS and IFNγ; details: LPS and IFNγ stimulated, 18 h, read-out: Human Whole Blood Potency, IC50
# Procedure, shortened: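 Heparinized healthy-donor human whole blood was preincubated 15 min with compound, then stimulated with LPS and IFNγ (100 ng/mL final) for 18 h at 37 °C. Plasma kynurenine was quantified by LC/MS/MS against a D6-kynurenine internal standard, and IC50s came from 4-parameter sigmoidal fits.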
# T1 sequence (P14902 whole entry): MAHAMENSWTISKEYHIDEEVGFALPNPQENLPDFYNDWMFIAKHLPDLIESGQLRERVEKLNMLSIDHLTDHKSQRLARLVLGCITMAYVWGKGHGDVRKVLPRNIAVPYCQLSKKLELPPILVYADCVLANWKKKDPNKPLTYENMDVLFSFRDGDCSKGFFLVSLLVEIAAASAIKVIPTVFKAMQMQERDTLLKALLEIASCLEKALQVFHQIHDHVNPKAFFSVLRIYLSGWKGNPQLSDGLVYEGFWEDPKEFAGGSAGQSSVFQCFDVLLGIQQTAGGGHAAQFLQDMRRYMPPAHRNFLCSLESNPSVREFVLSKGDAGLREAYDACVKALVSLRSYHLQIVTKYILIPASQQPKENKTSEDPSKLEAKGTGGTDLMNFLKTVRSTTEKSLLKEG
structure (smiles),measurement,setting,value
Cc1cccc(N2CCN(C(=O)Cn3nc(C(=O)N4CCN(CCO)CC4)c4c3C[C@H]3C[C@@H]43)CC2)c1C [Example 247],IC50,IDO1 [1],0.91 nM
same,IC50,IDO1 [2],91 nM
"Cc1cccc(N2CCN(C(=O)Cn3nc(C(=O)N4CCC(O)(CF)CC4)c4c3C[C@H]3C[C@@H]43)CC2)c1C [Example 276, 1-[4-(2,3-dimethylphenyl)piperazin-1-yl]-2-{(3bR,4aR)-3-[4-(fluoromethyl)-4-hydroxypiperidine-1-carbonyl]-3b,4,4a,5-tetrahydro-1H-cyclopropa[3,4]cyclopenta[1,2-c]pyrazol-1-yl}ethan-1-one]",IC50,IDO1 [1],2.03 nM
same,IC50,IDO1 [2],109 nM
"Cc1cccc(N2CCN(C(=O)Cn3nc(C(=O)N4CC[C@@H](O)[C@H](F)C4)c4c3C[C@H]3C[C@@H]43)CC2)c1C [Example 279, 1-[4-(2,3-dimethylphenyl)piperazin-1-yl]-2-{(3bR,4aR)-3-[(3R,4R)-3-fluoro-4-hydroxypiperidine-1-carbonyl]-3b,4,4a,5-tetrahydro-1H-cyclopropa[3,4]cyclopenta[1,2-c]pyrazol-1-yl}ethan-1-one]",IC50,IDO1 [1],0.59 nM
same,IC50,IDO1 [2],70 nM
"Cc1cccc(N2CCN(C(=O)Cn3nc(C(=O)N4CC[C@H](O)[C@H](C)C4)c4c3C[C@H]3C[C@@H]43)CC2)c1C [Example 280, 1-[4-(2,3-dimethylphenyl)piperazin-1-yl]-2-{(3bR,4aR)-3-[(3R,4S)-4-hydroxy-3-methylpiperidine-1-carbonyl]-3b,4,4a,5-tetrahydro-1H-cyclopropa[3,4]cyclopenta[1,2-c]pyrazol-1-yl}ethan-1-one]",IC50,IDO1 [1],0.79 nM
same,IC50,IDO1 [2],127 nM
"Cc1cccc(N2CCN(C(=O)Cn3nc(C(=O)N4CC[C@@H](O)[C@@H](C)C4)c4c3C[C@H]3C[C@@H]43)CC2)c1C [Example 281, 1-[4-(2,3-dimethylphenyl)piperazin-1-yl]-2-{(3bR,4aR)-3-[(3S,4R)-4-hydroxy-3-methylpiperidine-1-carbonyl]-3b,4,4a,5-tetrahydro-1H-cyclopropa[3,4]cyclopenta[1,2-c]pyrazol-1-yl}ethan-1-one]",IC50,IDO1 [1],0.97 nM
same,IC50,IDO1 [2],294 nM
"Cc1cccc(N2CCN(C(=O)Cn3nc(C(=O)N4C[C@@H](C)O[C@@H](C)C4)c4c3C[C@H]3C[C@@H]43)CC2)c1C [Example 283, 2-{(3bR,4aR)-3-[(2R,6S)-2,6-dimethylmorpholine-4-carbonyl]-3b,4,4a,5-tetrahydro-1H-cyclopropa[3,4]cyclopenta[1,2-c]pyrazol-1-yl}-1-[4-(2,3-dimethylphenyl)piperazine-1-yl]ethan-1-one]",IC50,IDO1 [1],1.13 nM
same,IC50,IDO1 [2],163 nM
"Cc1cccc(N2CCN(C(=O)Cn3nc(C(=O)N4CC[C@@H](O)[C@H](C)C4)c4c3C[C@H]3C[C@@H]43)CC2)c1C [Example 284, 1-[4-(2,3-dimethylphenyl)piperazin-1-yl]-2-{(3bR,4aR)-3-[(3R,4R)-4-hydroxy-3-methylpiperidine-1-carbonyl]-3b,4,4a,5-tetrahydro-1H-cyclopropa[3,4]cyclopenta[1,2-c]pyrazol-1-yl}ethan-1-one]",IC50,IDO1 [1],1.14 nM
same,IC50,IDO1 [2],403 nM
"Cc1cccc(N2CCN(C(=O)Cn3nc(C(=O)N4CCN(C(=O)CO)CC4)c4c3C[C@H]3C[C@@H]43)CC2)c1C [Example 285, 1-[4-(2,3-dimethylphenyl)piperazin-1-yl]-2-{(3bR,4aR)-3-[4-(hydroxyacetyl)piperazine-1-carbonyl]-3b,4,4a,5-tetrahydro-1H-cyclopropa[3,4]cyclopenta[1,2-c]pyrazol-1-yl}ethan-1-one]",IC50,IDO1 [1],1.46 nM
same,IC50,IDO1 [2],58 nM
"Cc1cccc(N2CCN(C(=O)Cn3nc(C(=O)N4CCC(F)(CO)CC4)c4c3C[C@H]3C[C@@H]43)CC2)c1C [Example 286, 1-[4-(2,3-dimethylphenyl)piperazin-1-yl]-2-{(3bR,4aR)-3-[4-fluoro-4-(hydroxymethyl)piperidine-1-carbonyl]-3b,4,4a,5-tetrahydro-1H-cyclopropa[3,4]cyclopenta[1,2-c]pyrazol-1-yl}ethan-1-one]",IC50,IDO1 [1],1.52 nM
same,IC50,IDO1 [2],44 nM
"Cc1cccc(N2CCN(C(=O)Cn3nc(C(=O)N4CC[C@@H](O)[C@@H](F)C4)c4c3C[C@H]3C[C@@H]43)CC2)c1C [Example 288, 1-[4-(2,3-dimethylphenyl)piperazin-1-yl]-2-{(3bR,4aR)-3-[(3S,4R)-3-fluoro-4-hydroxypiperidine-1-carbonyl]-3b,4,4a,5-tetrahydro-1H-cyclopropa[3,4]cyclopenta[1,2-c]pyrazol-1-yl}ethan-1-one]",IC50,IDO1 [1],1.71 nM
same,IC50,IDO1 [2],100 nM
"Cc1cccc(N2CCN(C(=O)Cn3nc(C(=O)N4CC[C@H](O)[C@H](F)C4)c4c3C[C@H]3C[C@@H]43)CC2)c1C [Example 289, 1-[4-(2,3-dimethylphenyl)piperazin-1-yl]-2-{(3bR,4aR)-3-[(3R,4S)-3-fluoro-4-hydroxypiperidine-1-carbonyl]-3b,4,4a,5-tetrahydro-1H-cyclopropa[3,4]cyclopenta[1,2-c]pyrazol-1-yl}ethan-1-one]",IC50,IDO1 [1],1.95 nM
same,IC50,IDO1 [2],180 nM
"Cc1cccc(N2CCN(C(=O)Cn3nc(C(=O)N4CC[C@@H](O)C[C@@H]4C)c4c3C[C@H]3C[C@@H]43)CC2)c1C [Example 290, 1-[4-(2,3-dimethylphenyl)piperazin-1-yl]-2-{(3bR,4aR)-3-[(2S,4R)-4-hydroxy-2-methylpiperidine-1-carbonyl]-3b,4,4a,5-tetrahydro-1H-cyclopropa[3,4]cyclopenta[1,2-c]pyrazol-1-yl}ethan-1-one]",IC50,IDO1 [1],2.03 nM
same,IC50,IDO1 [2],771 nM
"Cc1cccc(N2CCN(C(=O)Cn3nc(C(=O)N4CC[C@H](O)[C@@H](F)C4)c4c3C[C@H]3C[C@@H]43)CC2)c1C [Example 291, 1-[4-(2,3-dimethylphenyl)piperazin-1-yl]-2-{(3bR,4aR)-3-[(3S,4S)-3-fluoro-4-hydroxypiperidine-1-carbonyl]-3b,4,4a,5-tetrahydro-1H-cyclopropa[3,4]cyclopenta[1,2-c]pyrazol-1-yl}ethan-1-one]",IC50,IDO1 [1],2.79 nM
same,IC50,IDO1 [2],212 nM
"Cc1cccc(N2CCN(C(=O)Cn3nc(C(=O)N4CCC(F)(CO)CC4)c4c3CCC4)CC2)c1C [Example 293, 1-[4-(2,3-dimethylphenyl)piperazin-1-yl]-2-{3-[4-fluoro-4-(hydroxymethyl)piperidine-1-carbonyl]-5,6-dihydrocyclopenta[c]pyrazol-1(4H)-yl}ethan-1-one]",IC50,IDO1 [1],5.46 nM
same,IC50,IDO1 [2],178 nM
"Cc1cccc(N2CCN(C(=O)Cn3nc(C(=O)N4C[C@@H](C)O[C@@H](C)C4)c4c3[C@H]3C[C@H]3C4)CC2)c1C [Example 294, 2-{(4aS,5aS)-3-[(2R,6S)-2,6-dimethylmorpholine-4-carbonyl]-4,4a,5,5a-tetahydro-1H-cyclopropa[4,5]cyclopenta[1,2-c]pyrazol-1-yl}-1-[4-(2,3-dimethylphenyl)piperazin-1-yl]ethan-1-one]",IC50,IDO1 [1],5.59 nM
same,IC50,IDO1 [2],1450 nM
"Cc1cccc(N2CCN(C(=O)Cn3nc(C(=O)N4C[C@@H](C)O[C@@H](C)C4)c4c3[C@@H]3C[C@@H]3C4)CC2)c1C [Example 296, 2-{(4aR,5aR)-3-[(2R,6S)-2,6-dimethylmorpholine-4-carbonyl]-4,4a,5,5a-tetrahydro-1H-cyclopropa[4,5]cyclopenta[1,2-c]pyrazol-1-yl}-1-[4-(2,3-dimethylphenyl)piperazin-1-yl]ethan-1-one]",IC50,IDO1 [1],7.99 nM
same,IC50,IDO1 [2],543 nM
"Cc1cccc(N2CCN(C(=O)Cn3nc(C(=O)N4CCC5(CO)CC4C5)c4c3CCC4)CC2)c1C [Example 297, 1-[4-(2,3-dimethylphenyl)piperazin-1-yl]-2-{3-[5-(hydroxymethyl)-2-azabicyclo[3.1.1]heptane-2-carbonyl]-5,6-dihydrocyclopenta[c]pyrazol-1(4H)-yl}ethan-1-one]",IC50,IDO1 [1],11.3 nM
same,IC50,IDO1 [2],1220 nM
"Cc1c(Cl)cccc1N1CCN(C(=O)Cn2nc(C(=O)N3CCC(F)(CN)CC3)c3c2C[C@H]2C[C@@H]32)C2(CC2)C1 [Example 314, 2-{(3bR,4aR)-3-[4-(aminomethyl)-4-fluoropiperidine-1-carbonyl]-3b,4,4a,5-tetrahydro-1H-cyclopropa[3,4]cyclopenta[1,2-c]pyrazol-1-yl}-1-[7-(3-chloro-2-methylphenyl)-4,7-diazaspiro[2.5]octan-4-yl]ethan-1-one]",IC50,IDO1 [1],4.88 nM
same,IC50,IDO1 [2],846 nM
"Cc1c(Cl)cccc1N1CCN(C(=O)Cn2nc(C(=O)N3CC[C@H](N)[C@@H](F)C3)c3c2C[C@H]2C[C@@H]32)C2(CC2)C1 [Example 315, 2-{(3bR,4aR)-3-[(3S,4S)-4-amino-3-fluoropiperidine-1-carbonyl]-3b,4,4a,5-tetrahydro-1H-cyclopropa[3,4]cyclopenta[1,2-c]pyrazol-1-yl}-1-[7-(3-chloro-2-methylphenyl)-4,7-diazaspiro[2.5]octan-4-yl]ethan-1-one]",IC50,IDO1 [1],3.21 nM
same,IC50,IDO1 [2],272 nM
"Cc1c(F)ccc(N2CCN(C(=O)Cn3nc(C(=O)N4CC[C@H](O)[C@H](F)C4)c4c3C[C@H]3C[C@@H]43)C3(CC3)C2)c1C [Example 317, 1-[7-(4-fluoro-2,3-dimethylphenyl)-4,7-diazaspiro[2.5]octan-4-yl]-2-{(3bR,4aR)-3-[(3R,4S)-3-fluoro-4-hydroxypiperidine-1-carbonyl]-3b,4,4a,5-tetrahydro-1H-cyclopropa[3,4]cyclopenta[1,2-c]pyrazol-1-yl}ethan-1-one]",IC50,IDO1 [1],1.65 nM
same,IC50,IDO1 [2],205 nM
"Cc1c(F)ccc(N2CCN(C(=O)Cn3nc(C(=O)N4CCN(C(=O)CO)CC4)c4c3C[C@H]3C[C@@H]43)C3(CC3)C2)c1C [Example 319, 1-[7-(4-fluoro-2,3-dimethylphenyl)-4,7-diazaspiro[2.5]octan-4-yl]-2-{(3bR,4aR)-3-[4-(hydroxyacetyl)piperazine-1-carbonyl]-3b,4,4a,5-tetrahydro-1H-cyclopropa[3,4]cyclopenta[1,2-c]pyrazol-1-yl}ethan-1-one]",IC50,IDO1 [1],1.31 nM
same,IC50,IDO1 [2],452 nM
